Assay: Acute toxicity monitoring in non-inoculated mice
Assay type: in vivo, female CD-1 mice
Settings: not inoculated; 10 mg/kg, s.c. × 2; acute toxicity group
Method: The test compound was dissolved in 10.0 ml of 50 mM phosphate buffer to give a solution of 1 mg/ml (pH=7.0). This solution was serially diluted with vehicle by 4-fold ([…]) to give 0.25, 0.063 and 0.016 mg/ml solutions. All the solutions were filtered with […] Nalgene syringe filter. Immediately after the bacterial inoculation, group 1 animals were subcutaneously (sc) injected with buffer (no test compound) and groups 2 to 5 were given test compound sc at 10.0, 2.5, 0.63, and 0.16 mg/kg, respectively. Group 6 animals received test compound sc at 10 mg/kg (or the highest therapeutic dose of a given compound) only for monitoring acute toxicity. These injections were repeated once at 4 hours after the inoculation for the respective groups. The injection volume at each time was 10 ml per kilogram of body weight. The results of the in vivo efficacy test are summarized in Table II, which provides a representative example of the results obtained for Compound 70. The 50% effective dose (ED50) is calculated on the basis of the number of mice surviving 7 days after inoculation. The ED50 was determined for other compounds of this invention in a similar manner.

With `CCCCCCCCCC(=O)NC(Cc1c[nH]c2ccccc12)C(=O)NC(CC(N)=O)C(=O)NC(CC(=O)O)C(=O)NC1C(=O)NCC(=O)NC(CCCNC(=O)C2Cc3c([nH]c4ccccc34)CN2)C(=O)NC(CC(=O)O)C(=O)NC(C)C(=O)NC(CC(=O)O)C(=O)NCC(=O)NC(CO)C(=O)NC(C(C)CC(=O)O)C(=O)NC(CC(=O)c2ccccc2N)C(=O)OC1C` (stereo not shown) [Compound 70] the “Survival (7 days)” value was 5/5.
